The text below walks through data of ChEMBL document CHEMBL5335868, “Exploring Scaffold Hopping for Novel 2-(Quinolin-4-yloxy)acetamides with Enhanced Antimycobacterial Activity” (ACS Med Chem Lett, 2024).

Data set [1] deals with Mycobacterium tuberculosis. In words: Antibacterial activity against Mycobacterium tuberculosis H37Rv assessed as bacterial growth inhibition measured after 7 days by resazurin based assay. It is filed as functional. As to conditions: 168 h, time 7 day. (Resazurin is reduced to fluorescent resorufin, in cell work by metabolically active cells.)
Data set [2] is described as follows: Cytotoxicity against human HepG2 cells incubated for 72 hrs by MTT assay. Type of data set: toxicity, cell-based. On the technique in general: Tetrazolium assays rely on reduction of a dye to a coloured formazan, in cell work by metabolically active cells.
A short description of data set [3]: Cytotoxicity against human HepG2 cells incubated for 72 hrs by NRU assay. Type of data set: toxicity, cell-based.
A short description of data set [4]: Cytotoxicity against African green monkey Vero cells incubated for 72 hrs by MTT assay. Type of data set: toxicity, cell-based. As to conditions: chlorocebus sabaeus.
Data set [5] is described as follows: Cytotoxicity against African green monkey Vero cells incubated for 72 hrs by NRU assay. It is filed as toxicity, cell-based. The conditions noted are these: chlorocebus sabaeus.
Data set [6] in a line: Chemical stability of compound at pH 1.2 assessed as compound remaining at 10 uM incubated for 24 hrs by HPLC-MS/MS analysis. It is filed as physicochemical. As to conditions: buffer, read-out: Stability.
The nature of data set [7]: Chemical stability of compound at pH 7.4 assessed as compound remaining at 10 uM incubated for 24 hrs by HPLC-MS/MS analysis. Type of data set: physicochemical. As to conditions: buffer, read-out: Stability.
Data set [8] is described as follows: Chemical stability of compound at pH 9.1 assessed as compound remaining at 10 uM incubated for 24 hrs by HPLC-MS/MS analysis. It is filed as physicochemical. The conditions noted are these: buffer, read-out: Stability.
The nature of data set [9]: Solubility of compound at pH 1.2 at 1 mg incubated for 4 hrs by LC analysis. Type of data set: physicochemical.
A short description of data set [10]: Solubility of compound at pH 7.4 at 1 mg incubated for 4 hrs by LC analysis. It is filed as physicochemical.
Data set [11] can be described thus: Permeability of compound at 10 uM measured after 5 hrs by PAMPA assay. Type of data set: ADME. As to conditions: read-out: permeability.
Data set [12] is described as follows: Metabolic stability in rat liver microsomes assessed as half life at 1 mg/ml measured for 30 mins in presence of […] by HPLC-MS/MS analysis. It is filed as ADME, Microsome. On the technique in general: Microsomes from liver hold many membrane-bound enzymes, among them those of drug oxidation.
Data set [13] has as its system Mycobacterium tuberculosis. Briefly: Antibacterial activity against H37Rv infected in mouse RAW264.7 cells assessed as reduction in bacterial load by measuring colony forming units per well at 2.5 uM measured after 5 days by plate counting method (reference value: 4.19 +/- 0.41 log10CFU). As to conditions: time 5 day. It is filed as functional.
The test system of data set [14] is Mycobacterium tuberculosis. In words: Antibacterial activity against H37Rv infected in mouse RAW264.7 cells assessed as reduction in bacterial load by measuring colony forming units per well at 2.5 uM measured for 5 days by plate counting method (Rvb ~ 1.25 log10CFU). Type of data set: functional. As to conditions: time 5 day.

≈ marks a conversion by molar mass, not a printed value.

The MIC is the lowest concentration found to suppress growth. Turning to `COc1ccc2nc(C)cc(OCC(=O)Nc3ccc(N4CCCCC4)cc3)c2c1`, the MIC in data set [1] worked out at 0.09 µM (≈ 0.0365 µg/mL).

Consider `CCc1cc(OCC(=O)Nc2ccc(N3CCC(c4ccc(OC(F)(F)F)cc4)CC3)cc2)c2cc(OC)ccc2n1`, for which the MIC in data set [1] turned out to be 2.1 µM (≈ 1.22 µg/mL).

Usually CC50 stands for the concentration giving 50% cytotoxicity. Broadly, the solubility is the concentration that dissolves in the medium under given conditions. What is called half-life is how long it takes for the measured level to halve. Turning to `COc1ccc2nc(C)cc(OCC(=O)Nc3ccc(N4CCC(c5ccc(OC(F)(F)F)cc5)CC4)cc3)c2c1`, the MIC in [1] is 0.02 µM (≈ 0.0113 µg/mL). Moreover, the CC50 at 72 h in data set [2], in [3], in [4] and in data set [5] was over 10 µM each time. The remaining at 24 h, 10 µM worked out at 100% in data set [6], 85.3% in data set [7] and 96.8% in data set [8]. In addition, the solubility at 4 h in data set [9] came out at 20 µM (≈ 11.3 µg/mL); in data set [10] it was 2190 µM (≈ 1240 µg/mL). The Papp at 5 h, 10 µM in data set [11] was 0.16 ×10⁻⁶ cm/s. Besides, in [12], the half-life was 21 min.

In the case of `Cc1cc(OCC(=O)Nc2ccc(N3CCC(c4ccccc4)CC3)cc2)c2cc(Br)ccc2n1`, in data set [1], the MIC was found to be 0.02 µM (≈ 0.0106 µg/mL). The CC50 at 72 h in data set [2], in [3], in [4] and in [5] was over 10 µM each time. The remaining at 24 h, 10 µM is 100% in data set [6], 93.9% in data set [7] and 100% in data set [8]. In addition, the solubility at 4 h was over 1880 µM in data set [9] and 2640 µM (≈ 1400 µg/mL) in data set [10]. In addition, the Papp at 5 h, 10 µM in data set [11] came to 0.35 ×10⁻⁶ cm/s. Besides, in data set [12], the half-life was 76.4 min.

Regarding `COc1ccc2nc(C)cc(OCC(=O)Nc3ccc(N4CCC(c5ccccc5)CC4)cc3)c2c1`, the MIC in data set [1] amounted to 0.02 µM (≈ 0.00963 µg/mL). Also, the CC50 at 72 h in data set [2], in data set [3], in data set [4] and in data set [5] was over 10 µM each time. In addition, the remaining at 24 h, 10 µM is 52.4% in data set [6], 96.3% in [7] and 22.6% in data set [8]. Moreover, the solubility at 4 h was 410 µM (≈ 197 µg/mL) in [9] and 2220 µM (≈ 1070 µg/mL) in [10]. Further, the Papp at 5 h, 10 µM in data set [11] stood at 0.001 ×10⁻⁶ cm/s. Also, the half-life in [12] came to 7.1 min.

Consider `O=C(COc1cc(C(F)(F)F)nc2ccc(Br)cc12)Nc1ccc(N2CCC(c3ccccc3)CC2)cc1`, for which the MIC in data set [1] came out at 34.2 µM (≈ 20 µg/mL).

For `Cc1cc(OCC(=O)Nc2ccc(N3CCC(c4ccccc4)CC3)cc2)c2cc(Cl)ccc2n1`, in data set [1], the minimum inhibitory concentration (MIC) was determined as 0.02 µM (≈ 0.00972 µg/mL). The CC50 at 72 h in [2], in [3], in data set [4] and in data set [5] was over 10 µM each time. In addition, the remaining at 24 h, 10 µM in [6] turned out to be 90.6%; in [7], 100%; in data set [8] it was 99%. Besides, the results for the solubility at 4 h in data set [9] and in data set [10] were over 2060 µM and 4030 µM (≈ 1960 µg/mL), respectively. Besides, in data set [11], the Papp at 5 h, 10 µM amounted to 0.49 ×10⁻⁶ cm/s. Further, in data set [12], the half-life is 177 min. Besides, the Activity in data set [13] is reported as 2.46 log10CFU; in [14] it was 0.48 log10CFU.

Consider `Cc1cc(OCC(=O)Nc2ccc(N3CCC(c4ccc(OC(F)(F)F)cc4)CC3)cc2)c2cc(Cl)ccc2n1`, for which the MIC in data set [1] is 0.14 µM (≈ 0.0798 µg/mL).

Consider `CCc1cc(OCC(=O)Nc2ccc(N3CCC(c4ccc(OC(F)(F)F)cc4)CC3)cc2)c2cc(Cl)ccc2n1`, for which the MIC in data set [1] came to 0.07 µM (≈ 0.0409 µg/mL).

Turning to `CCc1cc(OCC(=O)Nc2ccc(N3CCC(c4ccccc4)CC3)cc2)c2cc(OC)ccc2n1`, the MIC in [1] amounted to 0.08 µM (≈ 0.0396 µg/mL).

With `CCc1cc(OCC(=O)Nc2ccc(N3CCC(c4ccc(OC(F)(F)F)cc4)CC3)cc2)c2cc(Br)ccc2n1`, the MIC in [1] is 7.9 µM (≈ 4.97 µg/mL).

Take `Cc1cc(OCC(=O)Nc2ccc(N3CCC(c4ccc(OC(F)(F)F)cc4)CC3)cc2)c2cc(Br)ccc2n1`: the MIC in data set [1] was determined as 0.06 µM (≈ 0.0369 µg/mL).

As for `O=C(COc1cc(C(F)(F)F)nc2ccc(Cl)cc12)Nc1ccc(N2CCC(c3ccccc3)CC2)cc1`, in data set [1], the MIC worked out at 74 µM (≈ 40 µg/mL).

For `CCc1cc(OCC(=O)Nc2ccc(N3CCC(c4ccccc4)CC3)cc2)c2cc(Br)ccc2n1`, the MIC in data set [1] turned out to be 0.07 µM (≈ 0.0381 µg/mL).

In the case of `COc1ccc2nc(C(F)(F)F)cc(OCC(=O)Nc3ccc(N4CCC(c5ccccc5)CC4)cc3)c2c1`, the MIC in [1] amounted to 0.1 µM (≈ 0.0536 µg/mL).

`CCc1cc(OCC(=O)Nc2ccc(N3CCC(c4ccccc4)CC3)cc2)c2cc(Cl)ccc2n1`: the MIC in [1] is 0.04 µM (≈ 0.02 µg/mL).

In the case of `NNC(=O)c1ccncc1` [ISONIAZID], in data set [1], the minimum inhibitory concentration (MIC) turned out to be 2.3 µM (≈ 0.315 µg/mL).

With `CCc1nc2ccc(Cl)cn2c1C(=O)NCc1ccc(N2CCC(c3ccc(OC(F)(F)F)cc3)CC2)cc1` [TELACEBEC], the MIC in [1] was 0.009 µM (≈ 0.00501 µg/mL).
